Columns and labels:
[1] = Human microsome stability assay; assay type: in vitro ADME; conditions: human liver microsomes, 1 μM test compound, 0.5 mg/mL microsomal protein, 37° C., pH 7.4, 0-30 minutes
Outline: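 Parent compound remaining was measured by LC-MS/MS at 0, 3, 6, 9, 15 and 30 min, following ACN quench. Reactions held 1 μM compound and 0.5 mg/mL human liver microsomal protein in pH 7.4 phosphate buffer at 37 °C, started by NADPH regeneration (1 mM NADP, 1 mM MgCl2); controls lacked NADPH.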

[2] = tested on: HBsAg in HBV-infected PHH; experiment: Cryopreserved primary human hepatocytes (PHH) HBV infection assay, extracellular HBsAg (CLIA); assay type: cell-based; conditions: Hepatitis B virus, Hepatocyte, 216 h, read-out: HBsAg IC50, Cryopreserved PHH infected with HBV, 9 days post-compound treatment, extracellular HBsAg
Outline: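 Cryopreserved PHH were infected with 5.8×10^6 HBV genome equivalents in medium with 4% PEG8000 and 1% DMSO. After 9 days of treatment, extracellular HBsAg was measured by CLIA, and IC50 was derived from a 4-parameter logistic fit.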

[3] = tested on: HBeAg (surrogate marker for cccDNA) in HepDES19 cells; experiment: Engineered HepDES19 primary screen assay (HBeAg ELISA); assay type: cell-based, HBV; conditions: Hepatitis B virus, HepDES19, 120 h, read-out: IC50 (HBeAg level, HepDES19 primary screen assay), HepDES19 cells, 5 days compound incubation, HBeAg ELISA
Outline: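 IC50 values come from 4-parameter logistic fits of HBeAg ELISA signal, the cccDNA surrogate, with CCK-8 run in parallel for viability. Compounds at half-log dilutions with 1% DMSO were applied for 5 days at 37 °C to HepDES19 cells previously cultured 8 days without Tet.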

Structure (SMILES) | Clearance of Human microsome [1] [mL/min/kg] | IC50 [2] [µM] | IC50 [3] [µM]
COc1cc(-c2cc(=O)c3cccc(Cl)c3o2)c(OCCO[C@H]2C[C@@H](C(=O)O)C2)cc1Br [Example C073, Cis-3-[2-[5-bromo-2-(8-chloro-4-oxo-chromen-2-yl)-4-methoxy-phenoxy]ethoxy]cyclobutanecarboxylic acid] | 7.85 | 7.56 | 0.92
Cc1ccc(-c2cc(=O)c3c(O)ccc(Cl)c3o2)c(O[C@H]2C[C@@H](C(=O)O)C2)c1 [Example B037-A, Cis-3-[2-(8-chloro-5-hydroxy-4-oxo-chromen-2-yl)-5-methyl-phenoxy]cyclobutanecarboxylic acid] | 9.86 | 2.04 | 4.43
Cc1ccc(-c2cc(=O)c3cccc(Br)c3o2)c(OCCCOCC(=O)O)c1 [Example C017, 2-[3-[2-(8-bromo-4-oxo-chromen-2-yl)-5-methyl-phenoxy]propoxy]acetic acid] | 6.15 | 2.94 | 0.492
COc1cc(-c2cc(=O)c3cccc(Cl)c3o2)c(OCCC(=O)O)cc1Cl [Example A008, 3-[5-chloro-2-(8-chloro-4-oxo-chromen-2-yl)-4-methoxy-phenoxy]propanoic acid] | 6.15 | 0.948 | 2.26
COc1cc(O[C@H]2C[C@H](C(=O)NS(C)(=O)=O)C2)c(-c2cc(=O)c3cccc(Cl)c3o2)cc1C [Example B050-B, Trans-3-[2-(8-chloro-4-oxo-chromen-2-yl)-5-methoxy-4-methyl-phenoxy]-N-methylsulfonyl-cyclobutanecarboxamide] | 7.69 | 9.46 | 6.08
COc1cc(-c2cc(=O)c3cccc(Cl)c3o2)c(OCCCOCC(=O)O)cc1Cl [Example C016, 2-[3-[5-chloro-2-(8-chloro-4-oxo-chromen-2-yl)-4-methoxy-phenoxy]propoxy]acetic acid] | 6.15 | 7.14 | 2.46
O=c1cc(-c2cc(F)ccc2OCCO[C@H]2C[C@@H](C(=O)O)C2)oc2c(Cl)cccc12 [Example C033-A, Cis-3-[2-[2-(8-chloro-4-oxo-chromen-2-yl)-4-fluoro-phenoxy]ethoxy]cyclobutanecarboxylic acid] | 6.15 | 1.97 | 1.34
O=c1cc(-c2ccccc2O[C@H]2C[C@@H](C(=O)O)C2)oc2c(Br)cccc12 [Example B022-A, Cis-3-[2-(8-bromo-4-oxo-chromen-2-yl)phenoxy]cyclobutanecarboxylic acid] | 6.15 | 3.83 | 0.112
O=c1cc(-c2ccccc2OC[C@H]2C[C@H](C(=O)O)C2)oc2c(Cl)cccc12 [Example B026-B, Trans-3-[[2-(8-chloro-4-oxo-chromen-2-yl)phenoxy]methyl]cyclobutanecarboxylic acid] | 6.15 | 3.19 | 0.138
Cc1ccc(S(=O)(=O)N[C@@H](COc2cc(C(F)(F)F)ccc2-c2cc(=O)c3cccc(Cl)c3o2)C(=O)O)cc1 [Example A097, (2S)-3-[2-(8-chloro-4-oxo-chromen-2-yl)-5-(trifluoromethyl)phenoxy]-2-(p-tolylsulfonylamino)propanoic acid] | 8.78 | 4.03 | 0.983
O=C(O)CCOc1cc(C(F)(F)F)ccc1-c1cc(=O)c2cccc(Cl)c2o1 [Example A001, 3-[2-(8-chloro-4-oxo-chromen-2-yl)-5-(trifluoromethyl)phenoxy]propanoic acid] | 10.0 | 1.19 | 1.64
O=C(O)CCOc1cc(Br)cnc1-c1cc(=O)c2cccc(Cl)c2o1 [Example A026, 3-[[5-bromo-2-(8-chloro-4-oxo-chromen-2-yl)-3-pyridyl]oxy]propanoic acid] | 6.15 | 2.97 | 2.97
COc1cc(-c2cc(=O)c3cccc(Cl)c3o2)c(OCCO[C@H]2C[C@@H](C(=O)O)C2)cc1OCC(F)(F)F [Example C080, Cis-3-[2-[2-(8-chloro-4-oxo-chromen-2-yl)-4-methoxy-5-(2,2,2-trifluoroethoxy)phenoxy]ethoxy]cyclobutanecarboxylic acid] | 6.15 | 3.51 | 4
Cc1ccc(-c2cc(=O)c3cccc(Cl)c3o2)c(OCCO[C@H]2C[C@@H](C(=O)O)C2)c1 [Example C038-A, Cis-3-[2-[2-(8-chloro-4-oxo-chromen-2-yl)-5-methyl-phenoxy]ethoxy]cyclobutanecarboxylic acid] | 6.15 | 8.61 | 0.643
O=c1cc(-c2cc(F)ccc2OCCO[C@H]2C[C@H](C(=O)O)C2)oc2c(Cl)cccc12 [Example C033-B, Trans-3-[2-[2-(8-chloro-4-oxo-chromen-2-yl)-4-fluoro-phenoxy]ethoxy]cyclobutanecarboxylic acid] | 6.15 | 4.33 | 0.927
O=C(O)C1CCC(Oc2cc(Br)ccc2-c2cc(=O)c3cccc(Cl)c3o2)CC1 (stereo not drawn) [Example B010, 4-[5-bromo-2-(8-chloro-4-oxo-chromen-2-yl)phenoxy]cyclohexanecarboxylic acid] | 6.15 | 7.08 | 2.76
Cc1cc(-c2cc(=O)c3cccc(Cl)c3o2)c(OCCCOCC(=O)O)cc1Cl [Example C019, 2-[3-[5-chloro-2-(8-chloro-4-oxo-chromen-2-yl)-4-methyl-phenoxy]propoxy]acetic acid] | 6.71 | 3 | 0.185
O=c1cc(-c2ccc(OC(F)(F)F)cc2O[C@H]2C[C@@H](C(=O)O)C2)oc2c(Cl)cccc12 [Example B015-A, Cis-3-[2-(8-chloro-4-oxo-chromen-2-yl)-5-(trifluoromethoxy)phenoxy]cyclobutanecarboxylic acid] | 6.15 | 2.57 | 3.79
O=C(O)C1CC(Oc2cc(C(F)(F)F)ccc2-c2cc(=O)c3cccc(Cl)c3o2)C1 (stereo not drawn) [Example B003, 3-[2-(8-chloro-4-oxo-chromen-2-yl)-5-(trifluoromethyl)phenoxy]cyclobutanecarboxylic acid] | 6.15 | 4.37 | 0.468
O=C(O)COCCOc1cc(Br)ccc1-c1cc(=O)c2cccc(Cl)c2o1 [Example C006, 2-[2-[5-bromo-2-(8-chloro-4-oxo-chromen-2-yl)phenoxy]ethoxy]acetic acid] | 6.15 | 3.74 | 1.26
O=c1cc(-c2cc(C(F)(F)F)c(Br)cc2OCCO[C@H]2C[C@H](C(=O)O)C2)oc2c(Cl)cccc12 [Example C042-B] | 6.15 | 8.96 | 15.3
COc1cc(OCCO[C@H]2C[C@@H](C(=O)NS(C)(=O)=O)C2)c(-c2cc(=O)c3cccc(Cl)c3o2)cc1OC [Example C125, 3-[2-[2-(8-chloro-4-oxo-chromen-2-yl)-4,5-dimethoxy-phenoxy]ethoxy]-N-methylsulfonyl-cyclobutanecarboxamide] | 6.15 | 7.17 | 4.91
Cc1cc(-c2cc(=O)c3cccc(Cl)c3o2)c(OCCCC(=O)O)cc1Br [Example A054, 4-[5-bromo-2-(8-chloro-4-oxo-chromen-2-yl)-4-methyl-phenoxy]butanoic acid] | 6.15 | 4.21 | 1.47
O=C(O)C1CC(Oc2cc(OC(F)(F)F)ccc2-c2cc(=O)c3cccc(Cl)c3o2)C1 (stereo not drawn) [Example B005, 3-[2-(8-chloro-4-oxo-chromen-2-yl)-5-(trifluoromethoxy)phenoxy]cyclobutanecarboxylic acid] | 6.15 | 6.97 | 0.219
O=C(O)CCCOc1cc(OC(F)(F)F)ccc1-c1cc(=O)c2cccc(Cl)c2o1 [Example A053, 4-[2-(8-chloro-4-oxo-chromen-2-yl)-5-(trifluoromethoxy)phenoxy]butanoic acid] | 7.66 | 3.57 | 0.491
O=C(O)C(O)COc1cc(C(F)(F)F)ccc1-c1cc(=O)c2cccc(Cl)c2o1 (stereo not drawn) [Example B073, 3-[2-(8-chloro-4-oxo-chromen-2-yl)-5-(trifluoromethyl)phenoxy]-2-hydroxy-propanoic acid] | 6.15 | 5.97 | 1.04
COc1cc(OCCO[C@H]2C[C@@H](C(=O)O)C2)c(-c2cc(=O)c3cccc(Cl)c3o2)cc1OCC(F)(F)F [Example C085, cis-3-[2-[2-(8-chloro-4-oxo-chromen-2-yl)-5-methoxy-4-(2,2,2-trifluoroethoxy)phenoxy]ethoxy]cyclobutanecarboxylic acid] | 6.15 | 9.02 | 0.271
